Experimental findings from US12427195B1, “Methods of neoantigen identification” (La Jolla Institute for Immunology, priority 2019, dated 2025) are described below.

The subject of test [1] is patient-derived cancer line expressing the HPV E6 protein. In words: Dynamic monitoring of killing of patient-derived cancer line. The test is classed as cell-based, human. An excerpt: FIG. 16A depicts dynamic monitoring of patient-derived cancer line to assess the capacity of the TCR to specifically kill tumor lines expressing the HPV E6 protein at 10:1 effector to target ratio. […] To assess non-specific (alloreactivity) background killing by the CD8 T cells, the growth of CD8 T cells that were stimulated and expanded but not subjected to CRISPR or LV editing are represented by Curve 3.

In test [2] the test system is E6+HLA-A*02:01+ tumor line (Caski). In words: Dynamic monitoring of killing of Caski tumor line. The test is classed as cell-based. Particulars: Caski cells. An excerpt: FIG. 16B depicts dynamic monitoring of E6^+HLA-A*02:01^+tumor line (Caski) to assess the capacity of the engineered TCR to specifically kill tumor lines expressing the HPV E6 protein at 10:1 effector to target ratio. […] To assess non-specific (alloreactivity) background killing by the CD8 T cells, the growth of CD8 T cells that were stimulated and expanded but NOT subjected to CRISPR or LV editing are represented by Curve 3.

The structures appear in SMILES notation. Some results are limits rather than exact numbers.

Take `N.N.[Cl][Pt][Cl]` [cisplatin]: the “time to kill tumor line” value in test [1] and in test [2] was at most 48 h in each case.
